pEC50, pIC50: −log10 of the molar value.
Tests used:
CD73 [1] = molecular target: T1, CD73 (Homo sapiens (Human), UniProt P21589); assay type: biochemical; settings: 1 mM NaH2PO4 in enzyme buffer, CD73 0.3 nM, AMP 15 uM
CD73 [2] = molecular target: T1, CD73; test: MDA-MB-231 Cell Based CD73 Activity Assay (DMEM); settings: MDA-MB-231-GFP cells, DMEM medium with 10% human plasma, 200 uM AMP

T1 sequence (P21589 27-574): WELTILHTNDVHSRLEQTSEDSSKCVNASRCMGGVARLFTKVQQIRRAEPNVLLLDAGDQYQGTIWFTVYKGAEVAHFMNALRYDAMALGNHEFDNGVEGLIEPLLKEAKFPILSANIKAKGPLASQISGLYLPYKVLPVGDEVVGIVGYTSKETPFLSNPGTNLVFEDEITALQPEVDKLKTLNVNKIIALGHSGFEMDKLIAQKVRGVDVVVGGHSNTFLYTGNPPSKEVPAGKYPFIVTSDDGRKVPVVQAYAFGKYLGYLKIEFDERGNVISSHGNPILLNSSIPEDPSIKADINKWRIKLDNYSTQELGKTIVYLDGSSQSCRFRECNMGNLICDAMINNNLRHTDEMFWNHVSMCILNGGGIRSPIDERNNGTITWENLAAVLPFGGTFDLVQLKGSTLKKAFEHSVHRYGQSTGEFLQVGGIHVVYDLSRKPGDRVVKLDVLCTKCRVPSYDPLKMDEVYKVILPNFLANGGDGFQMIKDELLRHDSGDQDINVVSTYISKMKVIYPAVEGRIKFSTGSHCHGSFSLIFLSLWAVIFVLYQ

pIC50 (CD73 [1]) | pEC50 (CD73 [2]) | Structure (SMILES)
8.06 | 7.44 | O=c1[nH]cc(-c2cc(N3CCC4(CCOCC4)C3)c3nccn3n2)c(=O)[nH]1 [Example 275, 5-(8-(8-oxa-2-azaspiro[4.5]decan-2-yl)imidazo[1,2-b]pyridazin-6-yl)pyrimidine-2,4(1H,3H)-dione]
8.97 | 8.18 | N#Cc1ccc([C@H]2C[C@@H]2c2cc(-c3c[nH]c(=O)[nH]c3=O)nn3ccnc23)c(F)c1 [Example 279, 4-((1S,2S)-2-(6-(2,4-dioxo-1,2,3,4-tetrahydropyrimidin-5-yl)imidazo[1,2-b]pyridazin-8-yl)cyclopropyl)-3-fluorobenzonitrile]
9.20 | 8.47 | N#Cc1ccc([C@H]2C[C@@H]2c2cc(-c3c[nH]c(=O)[nH]c3=O)nn3c(F)cnc23)c(F)c1 [Example 310, 4-((1S,2S)-2-(6-(2,4-dioxo-1,2,3,4-tetrahydropyrimidin-5-yl)-3-fluoroimidazo[1,2-b]pyridazin-8-yl)cyclopropyl)-3-fluorobenzonitrile]
8.18 | 7.56 | O=c1[nH]cc(-c2cc(N3CCC4(CCCC4)C3)c3nccn3n2)c(=O)[nH]1 [Example 315, 5-(8-(2-azaspiro[4.4]nonan-2-yl)imidazo[1,2-b]pyridazin-6-yl)pyrimidine-2,4(1H,3H)-dione]
9.19 | 8.92 | O=c1[nH]cc(-c2cc([C@H]3C[C@@H]3c3ccc4c(cnn4CC(F)(F)F)c3)c3nccn3n2)c(=O)[nH]1 [Example 316, 5-(8-((1S,2S)-2-(1-(2,2,2-trifluoroethyl)-1H-indazol-5-yl)cyclopropyl)imidazo[1,2-b]pyridazin-6-yl)pyrimidine-2,4(1H,3H)-dione]
9.00 | 8.70 | O=c1[nH]cc(-c2cc([C@H]3C[C@@H]3c3ccc4c(cnn4CC(F)(F)F)c3)c3ncc(F)n3n2)c(=O)[nH]1 [Example 317, 5-(3-fluoro-8-((1S,2S)-2-(1-(2,2,2-trifluoroethyl)-1H-indazol-5-yl)cyclopropyl)imidazo[1,2-b]pyridazin-6-yl)pyrimidine-2,4(1H,3H)-dione]
9.37 | 10.22 | O=c1[nH]cc(-c2cc([C@H]3C[C@@H]3c3ccc4cnn(CC(F)(F)F)c4c3)c3nccn3n2)c(=O)[nH]1 [Example 318, 5-(8-((1S,2S)-2-(1-(2,2,2-trifluoroethyl)-1H-indazol-6-yl)cyclopropyl)imidazo[1,2-b]pyridazin-6-yl)pyrimidine-2,4(1H,3H)-dione]
9.47 | 10.15 | O=c1[nH]cc(-c2cc([C@H]3C[C@@H]3c3ccc4cnn(CC(F)(F)F)c4c3)c3ncc(F)n3n2)c(=O)[nH]1 [Example 319, 5-(3-fluoro-8-((1S,2S)-2-(1-(2,2,2-trifluoroethyl)-1H-indazol-6-yl)cyclopropyl)imidazo[1,2-b]pyridazin-6-yl)pyrimidine-2,4(1H,3H)-dione]
< 6.60 | 5.94 | CC1(C)CN(c2cc(-c3c[nH]c(=O)[nH]c3=O)nn3ccnc23)CC(F)(F)C1 [Example 320, 5-(8-(3,3-difluoro-5,5-dimethylpiperidin-1-yl)imidazo[1,2-b]pyridazin-6-yl)pyrimidine-2,4(1H,3H)-dione]
9.10 | 10.15 | O=c1[nH]cc(-c2cc([C@H]3C[C@@H]3c3ccc4ncn(CC(F)(F)F)c4c3)c3nccn3n2)c(=O)[nH]1 [Example 322, 5-(8-((1S,2S)-2-(1-(2,2,2-trifluoroethyl)-1H-benzo[d]imidazol-6-yl)cyclopropyl)imidazo[1,2-b]pyridazin-6-yl)pyrimidine-2,4(1H,3H)-dione]
9.29 | 10.22 | O=c1[nH]cc(-c2cc([C@H]3C[C@@H]3c3ccc4ncn(CC(F)(F)F)c4c3)c3ncc(F)n3n2)c(=O)[nH]1 [Example 323, 5-(3-fluoro-8-((1S,2S)-2-(1-(2,2,2-trifluoroethyl)-1H-benzo[d]imidazol-6-yl)cyclopropyl)imidazo[1,2-b]pyridazin-6-yl)pyrimidine-2,4(1H,3H)-dione]
8.77 | 7.95 | O=c1[nH]cc(-c2cc(N3CC(F)(F)C4(CCC4)C3)c3nccn3n2)c(=O)[nH]1 [Example 325, 5-(8-(8,8-difluoro-6-azaspiro[3.4]octan-6-yl)imidazo[1,2-b]pyridazin-6-yl)pyrimidine-2,4(1H,3H)-dione]
8.43 | 7.39 | CC1(C)CN(c2cc(-c3c[nH]c(=O)[nH]c3=O)nn3cc(Cl)nc23)CC1(F)F [Example 328, 5-(2-chloro-8-(3,3-difluoro-4,4-dimethylpyrrolidin-1-yl)imidazo[1,2-b]pyridazin-6-yl)pyrimidine-2,4(1H,3H)-dione]
9.19 | 9.15 | O=c1[nH]cc(-c2cc([C@H]3C[C@@H]3c3ccc4c(C(F)(F)F)nn(CC(F)(F)F)c4c3)c3ncc(F)n3n2)c(=O)[nH]1 [Example 329, 5-(3-fluoro-8-((1S,2S)-2-(1-(2,2,2-trifluoroethyl)-3-(trifluoromethyl)-1H-indazol-6-yl)cyclopropyl)imidazo[1,2-b]pyridazin-6-yl)pyrimidine-2,4(1H,3H)-dione]
8.97 | 9.29 | O=c1[nH]cc(-c2cc(N3C[C@H](Oc4cc(C(F)(F)F)ccn4)C(F)(F)C3)c3nccn3n2)c(=O)[nH]1 [Example 330, (S)-5-(8-(3,3-difluoro-4-((4-(trifluoromethyl)pyridin-2-yl)oxy)pyrrolidin-1-yl)imidazo[1,2-b]pyridazin-6-yl)pyrimidine-2,4(1H,3H)-dione]
7.79 | 7.96 | O=c1[nH]cc(-c2cc(N3C[C@@H](Oc4cc(C(F)(F)F)ccn4)C(F)(F)C3)c3nccn3n2)c(=O)[nH]1 [Example 331, (R)-5-(8-(3,3-difluoro-4-((4-(trifluoromethyl)pyridin-2-yl)oxy)pyrrolidin-1-yl)imidazo[1,2-b]pyridazin-6-yl)pyrimidine-2,4(1H,3H)-dione]
8.06 | 7.57 | O=c1[nH]cc(-c2cc(N3C[C@@H](Oc4ccc(OC(F)F)cn4)C(F)(F)C3)c3nccn3n2)c(=O)[nH]1 [Example 332, (R)-5-(8-(4-((5-(difluoromethoxy)pyridin-2-yl)oxy)-3,3-difluoropyrrolidin-1-yl)imidazo[1,2-b]pyridazin-6-yl)pyrimidine-2,4(1H,3H)-dione]
9.05 | 8.72 | O=c1[nH]cc(-c2cc(N3C[C@H](Oc4ccc(OC(F)F)cn4)C(F)(F)C3)c3nccn3n2)c(=O)[nH]1 [Example 333, (S)-5-(8-(4-((5-(difluoromethoxy)pyridin-2-yl)oxy)-3,3-difluoropyrrolidin-1-yl)imidazo[1,2-b]pyridazin-6-yl)pyrimidine-2,4(1H,3H)-dione]
7.61 | 6.93 | O=c1[nH]cc(-c2cc(N3C[C@@H](Oc4ccc(OC(F)(F)F)cn4)C(F)(F)C3)c3nccn3n2)c(=O)[nH]1 [Example 334, (R)-5-(8-(3,3-difluoro-4-((5-(trifluoromethoxy)pyridin-2-yl)oxy)pyrrolidin-1-yl)imidazo[1,2-b]pyridazin-6-yl)pyrimidine-2,4(1H,3H)-dione]
8.55 | 8.17 | O=c1[nH]cc(-c2cc(N3C[C@H](Oc4ccc(OC(F)(F)F)cn4)C(F)(F)C3)c3nccn3n2)c(=O)[nH]1 [Example 335, (S)-5-(8-(3,3-difluoro-4-((5-(trifluoromethoxy)pyridin-2-yl)oxy)pyrrolidin-1-yl)imidazo[1,2-b]pyridazin-6-yl)pyrimidine-2,4(1H,3H)-dione]

Source: patent US20240043427A1 (Gilead Sciences, Inc., priority 2020, published 2024)
